Reference: US4086417A, “Cytidine nucleotide derivatives” (Asahi Kasei Kogyo Kabushiki Kaisha, priority 1974, dated 1978)

Test system: leukemia L-1210
Assay: Antitumour activity in mice inoculated intraperitoneally with leukemia L-1210 (survival, T/C)
Type: in vivo, CDF-1 male mice
Settings: for response vs control in vivo at 100 mg/kg / response vs control in vivo at 200 mg/kg / response vs control in vivo at 400 mg/kg: Mus musculus, L1210, ip, directly after injection of L-1210, after 2 days and after 6 days; for response vs control in vivo at 100 mg/kg: 100 mg/kg i.p.; for response vs control in vivo at 200 mg/kg: 200 mg/kg i.p.; for response vs control in vivo at 400 mg/kg: 400 mg/kg i.p.
Method: The antitumour activity for mice of the test material was evaluated by means of survival rate comparison, T/C (%), that is, 100 times the mean survival period of the groups injected with the test material divided by the mean survival period of the comparison groups which were not injected with the test material.
Further, for comparison, the following materials were also subjected to the same biological test: […]

**Q.** What does the source list for Nc1ccn([C@@H]2O[C@H](COP(=O)(O)O)[C@@H](O)[C@@H]2O)c(=O)n1 [Ara-C-5'-p.circle., 1-β-D-arabinofuranosylcytosine-5'-phosphate]?
**A.** Antileukemial effect on mice (in words) (L-1210 in mice, conclusions in words): inferior to 1-β-D-arabinofuranosylcytosine in antileukemical effect on mice; response vs control in vivo at 100 mg/kg: 119%; response vs control in vivo at 200 mg/kg: 131%; response vs control in vivo at 400 mg/kg: 143%

**Q.** How did the response vs control in vivo at 100 mg/kg turn out when CC(=O)Nc1ccn([C@@H]2O[C@H](COP(=O)(O)O)[C@@H](O)[C@@H]2O)c(=O)n1 [N^4 -Acetyl-5'-PNa] was run?
**A.** The response vs control in vivo at 100 mg/kg was 101%.

**Q.** What about the response vs control in vivo at 200 mg/kg of the same molecule?
**A.** Its response vs control in vivo at 200 mg/kg is 99%.

**Q.** What about the response vs control in vivo at 400 mg/kg of the same molecule?
**A.** Its response vs control in vivo at 400 mg/kg is 99%.

**Q.** CC(=O)Nc1ccn([C@@H]2O[C@H](CO)[C@@H](O)[C@@H]2O)c(=O)n1 [N^4 -Acetyl-Ara-C] was tested. Which response vs control in vivo at 100 mg/kg did it give?
**A.** The response vs control in vivo at 100 mg/kg was 125%.

**Q.** And the response vs control in vivo at 200 mg/kg?
**A.** The response vs control in vivo at 200 mg/kg was 125%.

**Q.** And the response vs control in vivo at 400 mg/kg?
**A.** Its response vs control in vivo at 400 mg/kg is 125%.

**Q.** What does the source list for CCCCC/C=C\C/C=C\C/C=C\C/C=C\CCCC(=O)Nc1ccn([C@@H]2O[C@H](COP(=O)(O)O)[C@@H](O)[C@@H]2O)c(=O)n1 [N^4 -Arachidonoyl-5'-PNa, N^4-arachidonoyl-1-β-D-arabinofuranosylcytosine-5'-phosphate monosodium]?
**A.** response vs control in vivo at 100 mg/kg: 274%; response vs control in vivo at 200 mg/kg: 148%; response vs control in vivo at 400 mg/kg: 115%

**Q.** What does the source list for CCCCC/C=C\C/C=C\C/C=C\C/C=C\CCCC(=O)Nc1ccn([C@@H]2O[C@H](CO)[C@@H](O)[C@@H]2O)c(=O)n1 [N^4 -Arachidonoyl-Ara-C]?
**A.** response vs control in vivo at 100 mg/kg: 269%; response vs control in vivo at 200 mg/kg: 137%; response vs control in vivo at 400 mg/kg: 114%

**Q.** Which response vs control in vivo at 100 mg/kg does the source give for CCCCCCCCCCCCCCCCCCCC(=O)Nc1ccn([C@@H]2O[C@H](COP(=O)(O)O)[C@@H](O)[C@@H]2O)c(=O)n1 [N^4 -Arachidoyl-5'-PNa, N^4-arachidoyl-1-β-D-arabinofuranosylcytosine-5'-phosphate monosodium] here?
**A.** Its response vs control in vivo at 100 mg/kg is 320%.

**Q.** What about the response vs control in vivo at 200 mg/kg of the same molecule?
**A.** Its response vs control in vivo at 200 mg/kg is 130%.

**Q.** What about the response vs control in vivo at 400 mg/kg of the same molecule?
**A.** The response vs control in vivo at 400 mg/kg was 106%.

**Q.** Which response vs control in vivo at 100 mg/kg does the source give for CCCCCCCCCCCCCCCCCCCC(=O)Nc1ccn([C@@H]2O[C@H](CO)[C@@H](O)[C@@H]2O)c(=O)n1 [N^4 -Arachidoyl-Ara-C] here?
**A.** The response vs control in vivo at 100 mg/kg was 313%.

**Q.** What about the response vs control in vivo at 200 mg/kg of the same molecule?
**A.** Its response vs control in vivo at 200 mg/kg is 128%.

**Q.** And the response vs control in vivo at 400 mg/kg?
**A.** Its response vs control in vivo at 400 mg/kg is 105%.

**Q.** Which results are given for CCCCCCCCCCCCCCCCCCCCCC(=O)Nc1ccn([C@@H]2O[C@H](COP(=O)(O)O)[C@@H](O)[C@@H]2O)c(=O)n1 [N^4 -Behenoyl-5'-PNa]?
**A.** response vs control in vivo at 100 mg/kg: 316%; response vs control in vivo at 200 mg/kg: 280%; response vs control in vivo at 400 mg/kg: 270%

**Q.** What does the source list for CCCCCCCCCCCCCCCCCCCCCC(=O)Nc1ccn([C@@H]2O[C@H](CO)[C@@H](O)[C@@H]2O)c(=O)n1 [N^4 -Behenoyl-Ara-C]?
**A.** response vs control in vivo at 100 mg/kg: 313%; response vs control in vivo at 200 mg/kg: 260%; response vs control in vivo at 400 mg/kg: 256%

**Q.** CCCC(=O)Nc1ccn([C@@H]2O[C@H](COP(=O)(O)O)[C@@H](O)[C@@H]2O)c(=O)n1 [N^4 -Butyryl-5'-PNa] was tested. Which response vs control in vivo at 100 mg/kg did it give?
**A.** Its response vs control in vivo at 100 mg/kg is 105%.

**Q.** And the response vs control in vivo at 200 mg/kg?
**A.** Its response vs control in vivo at 200 mg/kg is 102%.

**Q.** What about the response vs control in vivo at 400 mg/kg of the same molecule?
**A.** The response vs control in vivo at 400 mg/kg was 100%.

**Q.** What does the source list for CCCC(=O)Nc1ccn([C@@H]2O[C@H](CO)[C@@H](O)[C@@H]2O)c(=O)n1 [N^4 -Butyryl-Ara-C]?
**A.** response vs control in vivo at 100 mg/kg: 131%; response vs control in vivo at 200 mg/kg: 131%; response vs control in vivo at 400 mg/kg: 139%

**Q.** What does the source list for CCCCCC(=O)Nc1ccn([C@@H]2O[C@H](COP(=O)(O)O)[C@@H](O)[C@@H]2O)c(=O)n1 [N^4 -Caproyl-5'-PNa]?
**A.** response vs control in vivo at 100 mg/kg: 103%; response vs control in vivo at 200 mg/kg: 105%; response vs control in vivo at 400 mg/kg: 101%

**Q.** How did the response vs control in vivo at 100 mg/kg turn out when CCCCCC(=O)Nc1ccn([C@@H]2O[C@H](CO)[C@@H](O)[C@@H]2O)c(=O)n1 [N^4 -Caproyl-Ara-C] was run?
**A.** Its response vs control in vivo at 100 mg/kg is 125%.

**Q.** And the response vs control in vivo at 200 mg/kg?
**A.** Its response vs control in vivo at 200 mg/kg is 133%.

**Q.** And the response vs control in vivo at 400 mg/kg?
**A.** Its response vs control in vivo at 400 mg/kg is 150%.

**Q.** Which response vs control in vivo at 100 mg/kg does the source give for CCCCCCCCCC(=O)Nc1ccn([C@@H]2O[C@H](COP(=O)(O)O)[C@@H](O)[C@@H]2O)c(=O)n1 [N^4 -Capryl-5'-PNa] here?
**A.** The response vs control in vivo at 100 mg/kg was 103%.

**Q.** What about the response vs control in vivo at 200 mg/kg of the same molecule?
**A.** Its response vs control in vivo at 200 mg/kg is 102%.

**Q.** And the response vs control in vivo at 400 mg/kg?
**A.** The response vs control in vivo at 400 mg/kg was 98%.
